Article PMC6270001, “Synthesis and Antiviral Activity of N-Phenylbenzamide Derivatives, a Novel Class of Enterovirus 71 Inhibitors” (Molecules, 2013)

How the values were obtained:
[1] = test system: 16 enteroviruses; conditions: cited from earlier work
[2] = test system: EV 71 strain H (genotype C2); assay: Anti EV 71 activity assay (CPE, Reed & Muench) in Vero cells, strain H; type: cell-based, Enterovirus 71; conditions: for IC50: Enterovirus A, Vero, EV 71 strain H (C2 genotype), Vero cells, 100 TCID50, CPE, average ± SD, n=3; for SI H: selectivity index TC50/IC50, strain H, "-" stands for no antiviral selectivity
Procedure: (§1) The EV 71 was divided into three genotypes A, B and C based on nucleotide sequence comparisons, and genotypes B and C were subdivided into B1-B5 and C1-C5 [6, 10]. Genotype C is the most common genotype found in mainland China, especially the C4 subgenotype. Consequently, the intermediate compounds 1a, 1c and 1e, and the final products 2a–c, 3a–g, and 5a–f were evaluated for their anti-EV 71 activity in Vero cells against genotypes C4 (strains SZ-98 and JS-52-3), C2 (strain H) and A (strain BrCr). […] The IC50 values were calculated by the Reed and Muench method, and the cytotoxicity was monitored by the CPE method.
(§2) Vero cells were purchased from the American Type Culture Collection and cultured in Minimum Essential Medium (MEM) supplemented with 10% Fetal Bovine Serum (FBS) and antibiotics (100 U/mL penicillin G, 100 μg/mL streptomycin). Enterovirus 71 (EV 71) strain SZ-98 was kindly provided by Dr. Qi Jin, Institute of Pathogen Biology, Chinese Academy of Medical Science and Peking Union Medical School. Enterovirus 71 (EV 71) strain BrCr (VR-1775) was purchased from the American Type Culture Collection. Enterovirus 71 (EV 71) strain JS-52-3 was kindly provided by Dr. Xiang-zhong Ye, Beijing Wantai Biological Pharmacy Enterprise Co., Ltd. All Enterovirus 71 strains were propagated in Vero cells.
(§3) All compounds were dissolved in DMSO at 20 mg/mL as a stock solution and further diluted in culture medium prior to use. The initial concentration in all cytotoxicity assay was 200 µg/mL, and inhibition assay for anti-EV71 experiments was from maximum non-toxic concentration, and proceeded serially 3-fold dilution with culture medium. All cytotoxicity and activity assay for each compound was repeated for three times, and the data was indicated as average ± SD.
(§4) Confluent Vero cells grown in 96-well microplates were infected respectively with 100 median tissue culture infective dose (TCID50) EV 71. After 1 h adsorption at 37 °C, the monolayers were washed by PBS and incubated at 37 °C in the maintenance medium with or without different concentrations of test compounds.

[3] = test system: EV 71 strain JS-52-3 (genotype C4); assay: Anti EV 71 activity assay (CPE, Reed & Muench) in Vero cells, strain JS-52-3; type: cell-based, Enterovirus 71; conditions: for IC50: Enterovirus A, Vero, EV 71 strain JS-52-3, Vero cells, 100 TCID50, CPE, average ± SD, n=3; for SI JS-52-3: selectivity index TC50/IC50, strain JS-52-3, "-" stands for no antiviral selectivity
Procedure: as §1, §2, §3, §4

[4] = test system: EV 71 strain SZ-98 (genotype C4); assay: Anti EV 71 activity assay (CPE, Reed & Muench) in Vero cells, strain SZ-98; type: cell-based, Enterovirus 71; conditions: for IC50: Enterovirus A, Vero, EV 71 strain SZ-98, Vero cells, 100 TCID50, CPE, average ± SD, n=3; for SI SZ-98: selectivity index TC50/IC50, strain SZ-98, "-" stands for no antiviral selectivity
Procedure: as §1, §2, §3, §4

[5] = test system: Vero cells; assay: Cytotoxicity determination in Vero cells monitored by cytopathic effect (CPE); type: cell-based; conditions: 48 h, Reed & Muench, concentration that inhibits 50% cellular growth, average ± SD, n=3
Procedure: as §2, with “Enterovirus 71 (EV 71) strain BrCr (VR-1775) was purchased from the American Type Culture Collection.” left out
as §3
The cytotoxicity of compounds in the presence of Vero cells was monitored by cytopathic effect (CPE). Vero cells (2.5 × 10^4/well) were plated into a 96-well plate. A total of 24 h later, the monolayer cells were incubated in the presence of various concentrations of test compounds. […] The median toxic concentration (TC50) was calculated by Reed & Muench analyses.

[6] = test system: EV 71 strain BrCr (genotype A); assay: Anti EV 71 activity assay (CPE, Reed & Muench) in Vero cells, strain BrCr; type: cell-based, Enterovirus 71; conditions: for IC50: Enterovirus A, Vero, EV 71 strain BrCr, Vero cells, 100 TCID50, CPE, average ± SD, n=3; for SI BrCr: selectivity index TC50/IC50, strain BrCr, "-" stands for no antiviral selectivity
Procedure: as §1, §2, §3, §4

[7] = test system: EV 71 strains SZ-98, JS-52-3, H, BrCr; assay: Anti EV 71 activity assay in Vero cells, summary over the four strains tested; type: cell-based, Enterovirus 71; conditions: TC50/IC50, range over the EV 71 strains tested
Procedure: as §1, §2, §3, §4

| Compound | concentration effective against 80% of 16 enteroviruses tested [1] | IC50 [2] | IC50 [3] | IC50 [4] | TC50 [5] | IC50 [6] | selectivity index (SI) values (range over strains) [7] | SI H [2] | SI JS-52-3 [3] | melting point | SI SZ-98 [4] | SI BrCr [6] |
| --- | --- | --- | --- | --- | --- | --- | --- | --- | --- | --- | --- | --- |
| CCOC(=O)c1ccc(OCCC2CCN(c3ccc(C)nn3)CC2)cc1 [Pirodavir, pirodavir, reference compound] | 1.3 µg/mL | 0.6 ± 0.1 µM | 1 ± 0.2 µM | 1.2 ± 0.2 µM | 31 ± 2.2 µM | 1 ± 0.2 µM |  |  |  |  |  |  |
| COc1ccc(C(=O)Nc2ccc(Br)cc2)cc1N [Compound 1e, 3-Amino-N-(4-bromophenyl)-4-methoxybenzamide] |  | 5.7 ± 0.8 µM | 9.8 ± 0.4 µM | 12 ± 1.1 µM | 620 ± 0.0 µM | 9.1 ± 1.4 µM | 51–110 | 110 | 64 | 190 to 192 °C | 51 | 68 |
| COc1ccc(C(=O)Nc2ccc(Cl)cc2)cc1N [Compound 1c, 3-Amino-N-(4-chlorophenyl)-4-methoxybenzamide] |  | 34 ± 3.6 µM | 46 ± 5.7 µM | ~15 µM | 520 ± 29 µM | 56 ± 4.2 µM | 10–36 | 16 | 12 | 152 to 154 °C | 36 | 10 |
